Each structure is given as a SMILES string.

The experiment in a line: Binding affinity to C-terminal his-Avi-tagged human JAK2 JH-2 domain (536 to 812 residues) W659A/W777A/F794H mutant expressed in baculovirus expression system incubated for 1 hr in presence of JAK2 JH2 tracer and ATP by Lanthascreen assay. On the technique in general: TR-FRET usually uses a lanthanide donor and a delayed reading to cut background.

A word on the IC50: it is the concentration that gives 50% inhibition. Take `COC(=O)N[C@@H]1CC[C@@H](n2c(=O)n(C)c3cnc(Nc4cccc(-c5ccc6[nH]nc(C)c6c5)n4)cc32)C1`: the IC50 was at most 10 nM.

As to `COC(=O)N[C@@H]1CC[C@@H](n2c(=O)n(C)c3cnc(Nc4cccc(-c5ccc6c(c5)OCCO6)n4)cc32)C1`, the half-maximal inhibitory concentration (IC50) was at most 10 nM.

As for `COC(=O)N[C@@H]1CC[C@@H](n2c(=O)n(C)c3cnc(Nc4cccc(-c5ccc(OC)nc5)n4)cc32)C1`, the half-maximal inhibitory concentration (IC50) is at most 10 nM.

As for `COC(=O)N[C@@H]1CC[C@@H](n2c(=O)n(C)c3cnc(Nc4ccc(F)c(-c5ccc(C6CC6)cc5)n4)cc32)C1`, the IC50 is at most 10 nM.

`COC(=O)N[C@@H]1CC[C@@H](n2c(=O)n(C)c3cnc(Nc4ccnc(N5CCCCC5)n4)cc32)C1`: the IC50 is at most 10 nM.

For the compound `COC(=O)N[C@@H]1CC[C@@H](n2c(=O)n(C)c3cnc(Nc4cc(C)nc(N5CCC(F)(F)C5)n4)cc32)C1`, the IC50 was at most 10 nM.

Values taken from ChEMBL document CHEMBL6127140, “Bicyclic Ureas as JAK2 Inhibitors for Treating Hematological Cancer” (ACS Med Chem Lett, 2024).
